In this experiment the test system is ISR pathway (ATF4 translation). As to the kind of experiment: ATF4 Nano Luciferase reporter integrated stress response (ISR) assay in H4 ATF4-NLuc cells. The following applies: Homo sapiens, compound 30 minutes, then 50 um sodium arsenite for 6 hours, luminescence readout. For orientation: In a reporter assay the amount or activity of a reporter protein is the signal.

Setting [1] is: read-out: Activity (IC50), H4 ATF4-NLuc (clone 17) cells.

Molecules are shown by their SMILES. Read-outs that look alike come from different tables or passages of the source.

As to `O=C(COC1CN(CC(F)(F)F)C1)NC12CC(c3nnc([C@H]4C[C@@H](OC(F)(F)F)C4)o3)(C1)C2` [Example 116, 2-[1-(2,2,2-trifluoroethyl)azetidin-3-yl]oxy-N-[3-[5-[3-cis-(trifluoromethoxy)cyclobutyl]-1,3,4-oxadiazol-2-yl]-1-bicyclo[1.1.1]pentanyl]acetamide], the 50% inhibitory concentration (IC50) under setting [1] was in the range of 1 to 10 µM. As to `O=C(COC[C@H]1C[C@@H](OC(F)(F)F)C1)NC12CC(c3nnc([C@H]4C[C@@H](OC(F)(F)F)C4)o3)(C1)C2` [Example 117, 2-[[3-cis-(trifluoromethoxy)cyclobutyl]methoxy]-N-[3-[5-[3-cis-(trifluoromethoxy)cyclobutyl]-1,3,4-oxadiazol-2-yl]-1-bicyclo[1.1.1]pentanyl]acetamide], the IC50 under setting [1] was in the range of 1 to 10 µM. Still for that read-out and setting: with `O=C(COC1CC(OC(F)(F)F)C1)NC12CC(c3nnc(-c4cnn(CC(F)(F)F)c4)o3)(C1)C2` (stereo not drawn) [Example 118, N-[3-[5-[1-(2,2,2-trifluoroethyl)pyrazol-4-yl]-1,3,4-oxadiazol-2-yl]-1-bicyclo[1.1.1]pentanyl]-2-[3-cis-(trifluoromethoxy)cyclobutoxy]acetamide] the figure was 1 to 10 µM. Same read-out and setting: the result for `O=C(CO[C@H]1C[C@@H](OC(F)(F)F)C1)NC12CC(c3nnc(-c4ccn(CC(F)(F)F)n4)o3)(C1)C2` [Example 119, N-[3-[5-[1-(2,2,2-trifluoroethyl)pyrazol-3-yl]-1,3,4-oxadiazol-2-yl]-1-bicyclo[1.1.1]pentanyl]-2-[3-cis-(trifluoromethoxy)cyclobutoxy]acetamide] reads 1 to 10 µM.

With `O=C(COc1ccc(C2CC2)cc1)NC12CC(c3nnc([C@H]4C[C@@H](OC(F)(F)F)C4)o3)(C1)C2` [Example 120, 2-(4-cyclopropylphenoxy)-N-[3-[5-[3-cis-(trifluoromethoxy)cyclobutyl]-1,3,4-oxadiazol-2-yl]-1-bicyclo[1.1.1]pentanyl]acetamide], the half-inhibitory concentration (IC50) under setting [1] was less than 1 µM. On the same count and under the same terms, with `CC1C(c2nnc(C34CC(NC(=O)COc5ccc(Cl)c(F)c5)(C3)C4)o2)CN1CC(F)(F)F` (centres unmarked) [Example 121, 2-(4-chloro-3-fluoro-phenoxy)-N-[3-[5-[2-methyl-1-(2,2,2-trifluoroethyl)azetidin-3-yl]-1,3,4-oxadiazol-2-yl]-1-bicyclo[1.1.1]pentanyl]acetamide] the figure was less than 1 µM; with `CC1C(c2nnc(C34CC(NC(=O)COc5ccc(Cl)c(F)c5)(C3)C4)o2)CN1C(=O)OC(C)(C)C` (centres unmarked) [Example 122, tert-butyl 3-[5-[3-[[2-(4-chloro-3-fluoro-phenoxy)acetyl]amino]-1-bicyclo[1.1.1]pentanyl]-1,3,4-oxadiazol-2-yl]-2-methyl-azetidine-1-carboxylate], less than 1 µM; with `CC(N1CC(c2nnc(C34CC(NC(=O)COc5ccc(Cl)c(F)c5)(C3)C4)o2)C1)C(F)(F)F` (centres unmarked) [Example 123, 2-(4-chloro-3-fluoro-phenoxy)-N-[3-[5-[1-(2,2,2-trifluoro-1-methyl-ethyl)azetidin-3-yl]-1,3,4-oxadiazol-2-yl]-1-bicyclo[1.1.1]pentanyl]acetamide], less than 1 µM. Regarding `O=C(COc1ccc(Cl)c(F)c1)NC12CC(c3nnc([C@@H]4CC[C@H](COC(F)(F)F)O4)o3)(C1)C2` [Example 124, 2-(4-chloro-3-fluoro-phenoxy)-N-[3-[5-[5-cis-(trifluoromethoxymethyl)tetrahydrofuran-2-yl]-1,3,4-oxadiazol-2-yl]-1-bicyclo[1.1.1]pentanyl]acetamide], the IC50 under setting [1] was less than 1 µM. Same read-out and setting: the result for `O=C(COc1ccc(Cl)c(F)c1)NC12CC(c3nnc(CN4CCC(F)(F)C4)o3)(C1)C2` [Example 125, 2-(4-chloro-3-fluoro-phenoxy)-N-[3-[5-[(3,3-difluoropyrrolidin-1-yl)methyl]-1,3,4-oxadiazol-2-yl]-1-bicyclo[1.1.1]pentanyl]acetamide] reads less than 1 µM; that for `O=C(COc1ccc(Cl)c(F)c1)NC12CC(c3nnc(CN4CC(C(F)(F)F)C4)o3)(C1)C2` [Example 126, 2-(4-chloro-3-fluoro-phenoxy)-N-[3-[5-[[3-(trifluoromethyl)azetidin-1-yl]methyl]-1,3,4-oxadiazol-2-yl]-1-bicyclo[1.1.1]pentanyl]acetamide], less than 1 µM; that for `O=C(COc1ccc(Cl)c(F)c1)NC12CC(c3nnc(C4CN(CC(F)(F)F)CCO4)o3)(C1)C2` (centres unmarked) [Example 127, 2-(4-chloro-3-fluoro-phenoxy)-N-[3-[5-[4-(2,2,2-trifluoroethyl)morpholin-2-yl]-1,3,4-oxadiazol-2-yl]-1-bicyclo[1.1.1]pentanyl]acetamide], less than 1 µM. The same measure, in the same setting: the result for `CC(C)(C)OC(=O)N1CCOC(c2nnc(C34CC(NC(=O)COc5ccc(Cl)c(F)c5)(C3)C4)o2)C1` (centres unmarked) [Example 128, tert-butyl 2-[5-[3-[[2-(4-chloro-3-fluoro-phenoxy)acetyl]amino]-1-bicyclo[1.1.1]pentanyl]-1,3,4-oxadiazol-2-yl]morpholine-4-carboxylate] reads 1 to 10 µM; that for `O=C(COc1ccc(Cl)c(F)c1)NC12CC(c3nnc(CN4CC(F)(F)C4)o3)(C1)C2` [Example 129, 2-(4-chloro-3-fluoro-phenoxy)-N-[3-[5-[(3,3-difluoroazetidin-1-yl)methyl]-1,3,4-oxadiazol-2-yl]-1-bicyclo[1.1.1]pentanyl]acetamide], 1 to 10 µM; that for `O=C(COc1ccc(Cl)c(F)c1)NC12CC(c3nnc(C4CN(CC(F)F)C4)o3)(C1)C2` [Example 130, 2-(4-chloro-3-fluoro-phenoxy)-N-[3-[5-[1-(2,2-difluoroethyl)azetidin-3-yl]-1,3,4-oxadiazol-2-yl]-1-bicyclo[1.1.1]pentanyl]acetamide], less than 1 µM. Same read-out and setting: the result for `CC(C)(c1nnc(C23CC(NC(=O)COc4ccc(Cl)c(F)c4)(C2)C3)o1)C(F)F` [Example 131, 2-(4-chloro-3-fluoro-phenoxy)-N-[3-[5-(2,2-difluoro-1,1-dimethyl-ethyl)-1,3,4-oxadiazol-2-yl]-1-bicyclo[1.1.1]pentanyl]acetamide] reads more than 10 µM. As for `CN(CCO[C@H]1C[C@@H](OC(F)(F)F)C1)C12CC(NC(=O)COc3ccc(Cl)c(F)c3)(C1)C2` [Example 132, 2-(4-chloro-3-fluoro-phenoxy)-N-[3-[methyl-[2-[3-cis-(trifluoromethoxy)cyclobutoxy]ethyl]amino]-1-bicyclo[1.1.1]pentanyl]acetamide], under setting [1], the IC50 was less than 1 µM. Same read-out and setting: with `O=C(CO[C@H]1C[C@@H](OC(F)(F)F)C1)NC12CC(n3cnc(-c4cccc(C(F)(F)F)c4)c3)(C1)C2` [Example 134] the figure was less than 1 µM; with `O=C(CO[C@H]1C[C@@H](OC(F)(F)F)C1)NC12CC(n3cnc(-c4ccc(F)cc4F)c3)(C1)C2` [Example 135], less than 1 µM. Regarding `O=C(CO[C@H]1C[C@@H](OC(F)(F)F)C1)NC12CC(n3cnc(-c4ccc(F)cc4)c3)(C1)C2` [Example 136], the IC50 was 0.022 µM (H4 ATF4-NLuc (clone 17) cells) and less than 1 µM under setting [1].

`O=C(CO[C@H]1C[C@@H](OC(F)(F)F)C1)NC12CC(n3cnc(-c4cccc(F)c4)c3)(C1)C2` [Example 137]: the IC50 under setting [1] was less than 1 µM.

Regarding `O=C(CO[C@H]1C[C@@H](OC(F)(F)F)C1)NC12CC(n3cnc(-c4ccc(F)c(F)c4)c3)(C1)C2` [Example 138], under setting [1], the 50% inhibitory concentration (IC50) was less than 1 µM. On the same count and under the same terms, with `Cc1ccc(-c2cn(C34CC(NC(=O)CO[C@H]5C[C@@H](OC(F)(F)F)C5)(C3)C4)cn2)cc1F` [Example 140] the figure was less than 1 µM; with `O=C(CO[C@H]1C[C@H](OC(F)(F)F)C1)NC12CC(n3cnc(-c4ccc(Cl)cc4)c3)(C1)C2` [Example 141], less than 1 µM; with `Cc1cc(F)ccc1-c1cn(C23CC(NC(=O)CO[C@H]4C[C@@H](OC(F)(F)F)C4)(C2)C3)cn1` [Example 142], less than 1 µM. Still for that read-out and setting: the result for `O=C(COc1ccc(F)c(F)c1)NC12CC(n3cnc([C@H]4C[C@@H](OC(F)(F)F)C4)c3)(C1)C2` [Example 143] reads less than 1 µM; that for `O=C(COc1ccc(F)c(F)c1)NC12CC(n3cnc([C@H]4C[C@H](OC(F)(F)F)C4)c3)(C1)C2` [Example 144], less than 1 µM; that for `O=C(COCCn1cc(F)cn1)NC12CC(n3cnc(-c4ccc(Cl)cc4)c3)(C1)C2` [Example 145], less than 1 µM. Regarding `Cc1cc(-c2cn(C34CC(NC(=O)CO[C@H]5C[C@@H](OC(F)(F)F)C5)(C3)C4)cn2)ccc1F` [Example 147], the IC50 under setting [1] was less than 1 µM. In the case of `O=C(CO[C@H]1C[C@@H](OC(F)(F)F)C1)NC12CC(n3cnc(-c4ccc(C(F)(F)F)cc4F)c3)(C1)C2` [Example 148], the IC50 reads like this: (H4 ATF4-NLuc (clone 17) cells) 0.0026 µM; under setting [1], less than 1 µM. With `O=C(CO[C@H]1C[C@@H](OC(F)(F)F)C1)NC12CC(n3cnc(-c4ccc(C(F)(F)F)c(F)c4)c3)(C1)C2` [Example 149], under setting [1], the concentration for half-maximal inhibition (IC50) is less than 1 µM.

For `O=C(CO[C@H]1C[C@@H](OC(F)(F)F)C1)NC12CC(n3cnc(-c4ccc(C(F)(F)F)cc4)c3)(C1)C2` [Example 150], the IC50 under setting [1] is less than 1 µM. Turning to `O=C(COc1ccc(C(F)(F)F)nc1)NC12CC(n3cnc(C4CC(OC(F)(F)F)C4)c3)(C1)C2` (centres unmarked) [Example 151], the half-maximal inhibitory concentration (IC50) by setting is: (H4 ATF4-NLuc (clone 17) cells) 0.0355 µM; under setting [1], less than 1 µM. Consider `O=C(COCCOC(F)(F)F)NC12CC(n3cnc(-c4ccc(Cl)c(F)c4)c3)(C1)C2` [Example 152], for which the half-maximal inhibitory concentration (IC50) was 0.0382 µM (H4 ATF4-NLuc (clone 17) cells) and less than 1 µM under setting [1]. For `O=C(NC12CC(n3cnc(-c4ccc(Cl)c(F)c4)c3)(C1)C2)[C@H]1C[C@@H](OC(F)(F)F)C1` [Example 153], under setting [1], the IC50 was less than 1 µM. `CC(C)(Oc1ccc(Cl)cc1)C(=O)NC12CC(c3nnc([C@H]4C[C@@H](OC(F)(F)F)C4)o3)(C1)C2` [Example 154]: under setting [1], the IC50 is less than 1 µM. Consider `O=C(NC12CC(n3cnc(-c4ccc(Cl)c(F)c4)c3)(C1)C2)C1CCN(CC(F)(F)F)CC1` [Example 155], for which the half-maximal inhibitory concentration (IC50) under setting [1] was less than 1 µM. The same measure, in the same setting: with `O=C(COc1cccc(Cl)c1)NC12CC(c3nnc([C@H]4C[C@@H](OC(F)(F)F)C4)o3)(C1)C2` [Example 156] the figure was less than 1 µM. For `O=C(COc1ccc(C(F)(F)F)nc1)NC12CC(n3cnc(-c4ccc(F)c(F)c4)c3)(C1)C2` [Example 161], half-maximal inhibition (H4 ATF4-NLuc (clone 17) cells) (IC50) was put at 0.0134 µM and the half-inhibitory concentration (IC50) under setting [1] is less than 1 µM.

The IC50 is the midpoint of a concentration-inhibition curve.

For the origin of these results see US11851440B2, “Modulators of eukaryotic initiation factor 2B, compositions and methods” (Denali Therapeutics Inc., priority 2017, dated 2023).
